Tests used:
[1] = Blood glucose levels in mice treated with STS, rapamycin, and rapamycin with STS; type: in vivo
Method: Methods: Short term starvation (STS) or fasting mimicking diet (FMD) were administrated bi-weekly for periods of 48 h or 4 days, respectively. The end of the dietary intervention coincided with the administration of doxorubicin by intravenous injection. The animals were given a period of 10 to 12 days to recover bodyweight between one cycle of dietary intervention and the next. […] One-way ANOVA test was performed and differences with p-value<0.05 were considered significant (p-value<0.05, 0.01 and 0.001 are indicated as *, […], respectively).

[2] = Stress resistance experiment: survival after high dose doxorubicin

In the case of `CO[C@H]1C[C@@H]2CC[C@@H](C)[C@@](O)(O2)C(=O)C(=O)N2CCCC[C@H]2C(=O)O[C@H]([C@H](C)C[C@@H]2CC[C@@H](O)[C@H](OC)C2)CC(=O)[C@H](C)/C=C(\C)[C@@H](O)[C@@H](OC)C(=O)[C@H](C)C[C@H](C)/C=C/C=C/C=C/1C` [rapamycin], the blood glucose ([1]; Rapa+STS/FMD mice (FIG. 1A)) is reported as “decreased blood glucose”, the blood glucose ([1]; rapamycin alone, intraperitoneally every day, ad lib feeding (FIG. 1A)) is reported as “increase of blood glucose” and the “mortality / survival at day 20” value ([2]; rapamycin 14 days + STS 48 h prior to doxorubicin 24 mg/kg iv (FIG. 2B)) is reported as “STS can reverse the sensitization of normal tissue to chemotherapy induced by rapamycin”. For the same compound, the “mortality / survival at day 20” value ([2]; rapamycin 14 days, then doxorubicin 24 mg/kg iv, ad lib feeding (FIG. 2B)) was “increased mortality”.
